Tested on: mobilized peripheral blood-derived CD34+ cells
Experiment: Flow cytometry detection of HSC stemness markers, comparison with UM171 and SR1
Assay type: cell-based, human
Conditions: FIG. 5A; 1 μM; 8 days
Experimental: According to the solubility and required solvent indicated in the instructions of the small molecule inhibitor (see Table 1 for the Cat. number of the small molecule inhibitor), the preparation of the small molecule inhibitor stock solution was carried out. Next, the hematopoietic stem cell medium was prepared: SFEM II medium (stem cell, Cat. number: 09655)+50 ng/ml growth factor Flt-3L (PeProtech, Cat. number: 300-100UG)+50 ng/ml growth factor SCF (PeProtech, Cat. number): 300-07-100UG)+50 ng/ml growth factor TPO (PeProtech, Cat. number: 300-18-100UG)+10 ng/ml interleukin IL-6 (PeProtech, Cat. number: 200-06-20UG)+1% bispecific antibody (HyClone, Cat. No.: sv30010). According to the set concentration gradient of the small molecule inhibitor, the stock solution and the basal medium were used to prepare the medium containing different concentrations of the small molecule inhibitor.
First, the prepared medium was added to a 24-well plate (Corning, Cat. number: 3473), 950 μl per well, and placing it in a carbon dioxide incubator (Thermo, model: 3111) to preheat; resuspending the spare umbilical cord Blood-derived HSCs of Example 1 with SFEM 11+50 ng/ml Flt-3L+50 ng/ml SCF+50 ng/ml TPO+10 ng/ml IL-6+1% bispecific antibody, calculating the medium volume to be added according to 50 μl cell suspension per well and 2*10^5/m1 cell density per well. For example, when the final volume of the cell culture solution per well was 1 ml, the total number of cells per well was 2*10^5 cells calculated according to the cell density per well, and the density of the […] of cell suspension supplemented to each well is 4*10^6/ml. The density of the spare HSCs of Example 1 was adjusted to the calculated density of the cell suspension, and adding it; taking out the preheated medium from the incubator, adding 50 μl of the cell suspension to each well, and after mixing, using the microscope (OLYMPUS, model: CKX53) to observe the cells state, and then putting it into an incubator for culturing.
20 μL of cells cultured for 6-8 days (D6-D8) in the above Example 2 was sampled for counting, taking out a suspension of 2*10^5 cells into a 1.5 ml centrifuge tube according to the counting result; centrifuging at 400 g for 5 min, discarding the supernatant. 100 μL of PBS (phosphate-buffered saline solution, HyClone, Cat. number: SH30256.01) containing 1% HSA (human serum albumin, Guangdong Shuanglin, Cat. number: S10970069) was taken, resuspending the cells, and vortexing to mix well for later use. Then, the cell sample in the control was collected. The number of cells and the collection method were the same as those of the sample cells to be tested. The controls were setting as the NC group and the ISO group respectively, selecting the cells from any sample or mixed cells of the samples to be tested in this batch of experiments, depending on the number of cells.
According to Table 3 above, the antibodies were added to the cell suspensions of the above-mentioned cell samples to be tested and control cell samples according to groups; vortexing to mix and incubating at room temperature for 15 min in the dark. After 15-min incubation, 1 ml of PBS containing 1% HSA was added to each test sample, mixing well, centrifuging at 400 g for 5 min at room temperature. After centrifugation, the supernatant was discarded, and the cells were resuspended in 100 μL of PBS containing 1% HSA for each test sample. Samples were stored at room temperature away from light before testing. […]

COc1cc2ncc(-c3ccccc3)nc2cc1OC [AG1296]
maintaining the proportion of CD34+, CD34+CD90+, and CD34+CD90+CD45RA- cells, vs Mock, UM171 and lower AG1296 concentrations: significantly more effective than Mock group, UM171 group, AG1296 (500 nM) group and AG1296 (700 nM) group
maintaining the proportion of CD34+, CD34+CD90+, and CD34+CD90+CD45RA- cells, vs SR1 group: not as good as the SR1 group
proportion of LT-HSCs relative to AG1296 (500 nM) group and AG1296 (700 nM) group: about 1 time
proportion of LT-HSCs relative to Mock group and UM171 group: about 2 times
proportion of LT-HSCs, vs SR1 group: not as good as SR1 group

From patent publication US20240058387A1, “CULTURE MEDIUM COMPOSITION FOR AMPLIFYING AND MAINTAINING SELF-RENEWAL CAPACITY AND DIFFERENTIATION POTENTIAL OF HSCS AND APPLICATION THEREOF” (EDIGENE (GUANGZHOU) INC., priority 2020, published 2024)
